Measured values from PubChem BioAssay AID212 (DTP/NCI, 2004).
Where “and” joins values, the source holds several entries; their conditions need not be identical. Identical values can stand only once. Results filed as inconclusive are left out. Where a SMILES comes first, the peptide text is derived from it. Bridges are numbered along the chain shown (N, C = ends).

Test system: BDF1 mice, colon carcinoma 38 sc, T/C %
Test: NCI In Vivo Anticancer Drug Screen. Data for tumor model Colon Carcinoma 38 (subcutaneous) in B6D2F1 (BDF1) mice
Details: endpoint: median tumor weight (est.), higher = larger tumour
How it was run: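 Mice with transplanted tumors are treated with compound or vehicle. Survival or tumor size is then measured in both groups. The ratio of treated to control gives the reported figure.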

[1] = dose: 12.5 mg/kg/injection, schedule: Q07DX002 (ip), vehicle: saline
[2] = dose: 12.5 mg/kg/injection, schedule: Q07DX003 (ip), vehicle: saline
[3] = dose: 12.5 mg/kg/injection, schedule: Q07DX003 (ip), vehicle: water
[4] = dose: 25.0 mg/kg/injection, schedule: Q07DX003 (ip), vehicle: saline
[5] = dose: 25.0 mg/kg/injection, schedule: Q07DX003 (ip), vehicle: water
[6] = dose: 50.0 mg/kg/injection, schedule: Q07DX003 (ip), vehicle: saline
[7] = dose: 50.0 mg/kg/injection, schedule: Q07DX003 (ip), vehicle: water
[8] = dose: 100.0 mg/kg/injection, schedule: Q07DX003 (ip), vehicle: water
[9] = dose: 200.0 mg/kg/injection, schedule: Q07DX003 (ip), vehicle: saline
[10] = dose: 400.0 mg/kg/injection, schedule: Q07DX002 (ip), vehicle: saline
[11] = dose: 25.0 mg/kg/injection, schedule: Q07DX002 (ip), vehicle: saline
[12] = dose: 100.0 mg/kg/injection, schedule: Q07DX002 (ip), vehicle: saline
[13] = dose: 50.0 mg/kg/injection, schedule: Q07DX002 (ip), vehicle: saline

ClCC[N+]12CC[N+](CCCl)(CC1)C2
T/C [1]: 115 % of control and 123 % of control | T/C [2]: 56 % of control | T/C [3]: 84 % of control | T/C [4]: 65 % of control | T/C [5]: 78 % of control | T/C [6]: 72 % of control | T/C [7]: 44 % of control | T/C (dose: 100.0 mg/kg/injection, schedule: Q07DX003 (ip), vehicle: saline): 123 % of control | T/C [8]: 45 % of control | T/C [9]: 70 % of control | T/C [10]: 47 % of control and 52 % of control | T/C (dose: 400.0 mg/kg/injection, schedule: Q07DX003 (ip), vehicle: saline): 115 % of control

C1CNCOC1
T/C [11]: 108 % of control | T/C [12]: 115 % of control

CCC[CH2][Sn]1([CH2]CCC)[O]C2C(CO)OC(n3ccc(N)nc3=O)C2[O]1 (configuration not stated)
T/C (dose: 1.56 mg/kg/injection, schedule: Q07DX002 (ip), vehicle: Klucel (hydroxypropylcellulose) (HPC)): 61 % of control and 72 % of control | T/C (dose: 25.0 mg/kg/injection, schedule: Q07DX002 (ip), vehicle: Klucel (hydroxypropylcellulose) (HPC)): 91 % of control

CCC(C)C1NC(=O)C(CC(C)C)NC(=O)C(C(C)C)NC(=O)C2CSSCC(NC1=O)C(=O)N2 (configuration not stated) (cyclo(CCVLI); disulfide 1-2; configuration not given here)
T/C (dose: 128.12 micrograms/kg/injection, schedule: Q07DX002 (ip), vehicle: Klucel (hydroxypropylcellulose) (HPC)): 160 % of control | T/C (dose: 256.25 micrograms/kg/injection, schedule: Q07DX002 (ip), vehicle: Klucel (hydroxypropylcellulose) (HPC)): 118 % of control

CNc1nc(N(C)C)nc(N(C)C)n1
T/C (dose: 3.12 mg/kg/injection, schedule: Q07DX003 (ip), vehicle: saline): 114 % of control | T/C (dose: 6.25 mg/kg/injection, schedule: Q07DX003 (ip), vehicle: saline): 95 % of control | T/C (dose: 6.25 mg/kg/injection, schedule: Q07DX003 (ip), vehicle: water): 89 % of control | T/C [2]: 121 % of control | T/C [3]: 104 % of control | T/C [4]: 121 % of control | T/C [5]: 61 % of control | T/C [6]: 114 % of control | T/C [7]: 158 % of control | T/C [8]: 108 % of control | T/C [9]: 32 % of control | T/C (dose: 200.0 mg/kg/injection, schedule: Q07DX003 (ip), vehicle: water): 22 % of control

NC1=NC(=O)N2CC12 (configuration not stated)
T/C [11]: 81 % of control | T/C [13]: 82 % of control and 83 % of control | T/C [12]: 81 % of control and 104 % of control | T/C (dose: 200.0 mg/kg/injection, schedule: Q07DX002 (ip), vehicle: saline): 66 % of control and 70 % of control | T/C [10]: 79 % of control

C(COCCOCC1CO1)OCCOCC1CO1 (configuration not stated)
T/C (dose: 12.5 mg/kg/injection, schedule: Q07DX002 (ip), vehicle: saline with Tween-80): 88 % of control | T/C [1]: 102 % of control | T/C [13]: 158 % of control | T/C [12]: 84 % of control | T/C (dose: 200.0 mg/kg/injection, schedule: Q07DX002 (ip), vehicle: saline with Tween-80): 113 % of control | T/C (dose: 400.0 mg/kg/injection, schedule: Q07DX002 (ip), vehicle: saline with Tween-80): 99 % of control | T/C [10]: 68 % of control
